Experimental data as given in patent US20250230138A1, “COMPOUNDS HAVING A T-STRUCTURE FORMED BY AT LEAST FOUR CYCLES FOR USE IN THE TREATMENT OF CANCER AND OTHER INDICATIONS” (TheRas, Inc., priority 2022, published 2025).
Read-outs that look alike come from different tables or passages of the source.

Experiments:
pAKT in BT474 cells = assay: Cell-based pAKT HTRF assay in BT474 cells
Outline: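 Cells grown in DMEM with 10% FBS were exposed to compounds for 4 hr in 0.25% DMSO, using a 9-point, 3-fold dilution series that starts at 3 μM. Lysates were incubated with d2 and Eu Cryptate antibodies for 4–24 h at room temperature, and HTRF was read at 615 nm emission.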

[1] = target: KRAS-PI3Kα interaction (KRAS-Q25A binding to avi-tagged full length PI3Kα) (Homo sapiens (Human), UniProt P42336); assay: Disrupting KRAS-PI3Kα interaction by SPR inhibition assay; conditions: KRAS-Q25A at 20 μM, 25° C.
[2] = system: pAKT in Tet-on KRAS G12D HeLa cells; assay: Cell-based pAKT HTRF assay in Tet-on KRAS G12D HeLa cells; conditions: read-out: pAKT inhibition IC50 in Tet-on KRAS G12D HeLa cells
Protocol: To determine the effectiveness of compounds in disrupting PIK3CA/KRAS signaling in cells, we implemented pAKT HTRF assay (Perkin-Elmer) in Tet-on KRAS G12D HeLa cells.
On Day 1, cells were seeded into 96-well plates at 2×10^4 cells/well in complete growth media (DMEM, 10% Tet-Screened FBS) supplemented with 200 ng/mL doxycycline.
On Day 2, cells were treated with compounds at 0.25% DMSO. The source plate was created with compounds diluted in media at 5-fold the final assay concentration. The compounds are run in a 9-point concentration curve starting at 75 μM, with a 3-fold dilution between concentrations. […] 20 μL was transferred onto the cell plates (final volume in wells was 100 μL). Plates were harvested after 30 min and 4 hr incubation by aspirating media and adding kit-supplied 1× supplemented lysis buffer to all wells (50 μL per well). This then changed to 4 hr only when compounds became covalent. Plates were then placed on a plate shaker and incubated at 850 rpm for an additional 30 min. The antibody mixture solution was prepared by diluting aliquoted d2 and Eu Cryptate antibodies 1:20 in kit supplied detection buffer, then mixed the diluted antibodies solutions (1:1 v:v). 4 μL of this solution was then added to a 384-well detection plate (Perkin Elmer; 6008230). Samples were homogenized by pipetting up and down and then transferred (16 μL of cell lysates) from the 96-well cell culture plate to two wells of the HTRF 384-well detection plate containing the antibody solution. Plates were centrifuged (524 g for 1 min) and allowed to incubate between 4 and 24 h at room temperature. The maximum signal is reached after 4 h incubation time and remains stable over a period of 24 hours. Therefore, readings can be made between 4 and 24 h of incubation. Plates were centrifuged again (524 g for 1 min), and analyzed on the EnVision plate reader using the following settings: Excitation 320 nm, Bandwidth […]; Emission 615 nm, Bandwidth […], Gain 100%, Flashes 100, Lag 60 μs.

[3] = Homo sapiens, BT-474, BT474 cells, 4 hr incubation, Compounds 10-999, read-out: pAKT inhibition IC50 in BT474 cells
[4] = BT474 cells, 4 hr incubation, Compounds 10-999, read-out: pAKT inhibition IC50 in BT474 cells

Chain of KRAS-PI3Kα interaction (KRAS-Q25A binding to avi-tagged full length PI3Kα) (P42336 whole entry, looked up, stated change not applied): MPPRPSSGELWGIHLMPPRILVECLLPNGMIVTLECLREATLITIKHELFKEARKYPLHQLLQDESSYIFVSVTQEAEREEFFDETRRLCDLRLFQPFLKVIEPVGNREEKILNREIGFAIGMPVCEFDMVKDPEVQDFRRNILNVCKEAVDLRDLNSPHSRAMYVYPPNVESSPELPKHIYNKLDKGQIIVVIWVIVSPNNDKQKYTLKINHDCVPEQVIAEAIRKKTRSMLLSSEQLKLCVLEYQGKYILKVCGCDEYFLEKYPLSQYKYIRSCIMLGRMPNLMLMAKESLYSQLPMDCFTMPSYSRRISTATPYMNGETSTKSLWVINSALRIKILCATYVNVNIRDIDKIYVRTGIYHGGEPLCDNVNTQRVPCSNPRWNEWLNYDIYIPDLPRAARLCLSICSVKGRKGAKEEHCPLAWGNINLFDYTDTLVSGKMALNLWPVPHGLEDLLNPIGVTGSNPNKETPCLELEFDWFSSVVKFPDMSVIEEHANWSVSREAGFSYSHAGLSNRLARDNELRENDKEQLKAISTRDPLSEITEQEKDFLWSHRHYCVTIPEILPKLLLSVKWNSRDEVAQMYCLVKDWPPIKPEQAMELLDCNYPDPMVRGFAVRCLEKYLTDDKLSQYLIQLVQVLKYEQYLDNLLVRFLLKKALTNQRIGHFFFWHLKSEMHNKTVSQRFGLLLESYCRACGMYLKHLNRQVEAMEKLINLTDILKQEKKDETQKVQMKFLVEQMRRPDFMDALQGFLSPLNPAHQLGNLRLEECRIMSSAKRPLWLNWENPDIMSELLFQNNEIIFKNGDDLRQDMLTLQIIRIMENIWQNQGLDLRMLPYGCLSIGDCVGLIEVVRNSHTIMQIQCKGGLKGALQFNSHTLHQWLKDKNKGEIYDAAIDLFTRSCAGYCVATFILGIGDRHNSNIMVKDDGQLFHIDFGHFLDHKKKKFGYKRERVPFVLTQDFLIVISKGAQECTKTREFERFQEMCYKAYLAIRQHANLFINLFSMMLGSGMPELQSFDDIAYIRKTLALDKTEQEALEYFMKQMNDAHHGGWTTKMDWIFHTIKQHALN
Chain of KRAS-PI3Kα interaction (KRAS-Q25A binding to avi-tagged full length PI3Kα) (P27986 whole entry partner, looked up): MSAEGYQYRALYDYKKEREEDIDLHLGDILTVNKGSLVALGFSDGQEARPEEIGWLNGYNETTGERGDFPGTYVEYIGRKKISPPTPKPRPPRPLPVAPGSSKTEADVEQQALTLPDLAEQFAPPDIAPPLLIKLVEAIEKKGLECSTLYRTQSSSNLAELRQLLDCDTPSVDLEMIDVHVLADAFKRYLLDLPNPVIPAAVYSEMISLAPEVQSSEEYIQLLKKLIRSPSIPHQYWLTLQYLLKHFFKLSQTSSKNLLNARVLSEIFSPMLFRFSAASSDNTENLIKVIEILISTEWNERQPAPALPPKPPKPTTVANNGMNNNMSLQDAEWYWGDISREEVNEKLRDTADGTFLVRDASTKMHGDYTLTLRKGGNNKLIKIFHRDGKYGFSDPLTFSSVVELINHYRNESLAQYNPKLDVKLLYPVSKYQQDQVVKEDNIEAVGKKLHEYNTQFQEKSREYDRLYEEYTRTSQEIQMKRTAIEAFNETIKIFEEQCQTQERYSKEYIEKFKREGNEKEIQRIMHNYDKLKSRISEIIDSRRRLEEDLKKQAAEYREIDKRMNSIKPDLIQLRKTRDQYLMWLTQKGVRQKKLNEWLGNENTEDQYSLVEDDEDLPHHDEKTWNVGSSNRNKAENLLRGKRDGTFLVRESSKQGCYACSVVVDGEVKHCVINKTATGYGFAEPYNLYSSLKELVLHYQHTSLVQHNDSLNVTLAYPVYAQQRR

Row | SMILES | IC50 (pAKT in BT474 cells; [3]) | IC50 [1] | IC50 (pAKT in BT474 cells; [4]) | IC50 ([2]; Tet-on KRAS G12D HeLa cells) | IC50 ([2]; Homo sapiens, HeLa) | IC50 (pAKT in BT474 cells; Homo sapiens, BT-474, BT474, free fraction adjusted, read-out: in vitro BT474 pAKT free fraction adjusted IC50) | IC50 (pAKT in BT474 cells; Homo sapiens, BT-474, BT474 cell line, read-out: pAKT (IC50))
1 | C=CC(=O)N1CCc2nc(-c3nc(-c4ccc5c(c4)CCNC5)c4ccsc4c3-c3ccc(F)cc3OCCOC)sc2C1 [Compound 58, 1-[2-[7-[4-fluoro-2-(2-methoxyethoxy)phenyl]-4-(1,2,3,4-tetrahydroisoquinolin-6-yl)thieno[3,2-c]pyridin-6-yl]-6,7-dihydro-4H-thiazolo[5,4-c]pyridin-5-yl]prop-2-en-1-one] | < 100 nM | 5000 to 25000 nM | – | – | – | 1440 nM | 34 nM
2 | C=CC(=O)N1CCCC(n2cc(-c3nc(-c4ccc5c(c4)CCNC5)c4ccsc4c3-c3ccc(F)cc3OCCOC)cn2)C1 (stereo not shown) [compound 31] | – | < 5000 nM | < 100 nM | < 1000 nM | – | – | –
3 | C=CC(=O)Nc1cccc(-c2nc(-c3ccc4c(c3)CNC(=O)C4)c3ccsc3c2-c2ccc(F)cc2OCCOC)c1 [compound 51] | – | 5000 to 25000 nM | 100 to 1000 nM | < 1000 nM | – | – | –
4 | C=CC(=O)N1CC(n2cc(-c3nc(-c4ccc5c(c4)CCNC5)c4ccsc4c3-c3ccc(F)cc3OCCOC)cn2)C1 [Compound 44, 1-[3-[4-[7-[4-fluoro-2-(2-methoxyethoxy)phenyl]-4-(1,2,3,4-tetrahydroisoquinolin-6-yl)thieno[3,2-c]pyridin-6-yl]pyrazol-1-yl]azetidin-1-yl]prop-2-en-1-one] | < 100 nM | 5000 to 25000 nM | – | – | < 1000 nM | – | –

Second part, led by results:

Row | IC50 (pAKT in BT474 cells; [3]) | IC50 [1] | IC50 (pAKT in BT474 cells; [4]) | IC50 ([2]; Tet-on KRAS G12D HeLa cells) | IC50 ([2]; Homo sapiens, HeLa) | SMILES | IC50 (pAKT in BT474 cells; Homo sapiens, BT-474, BT474, free fraction adjusted, read-out: in vitro BT474 pAKT free fraction adjusted IC50) | IC50 (pAKT in BT474 cells; Homo sapiens, BT-474, BT474 cell line, read-out: pAKT (IC50))
5 | – | < 5000 nM | < 100 nM | < 1000 nM | – | C=CC(=O)N1CCc2ccc(-c3nc(-c4ccc5c(c4)CCNC5)c4ccsc4c3-c3ccc(F)cc3OCCOC)cc2C1 [compound 42] | – | –
6 | 100 to 1000 nM | < 5000 nM | – | – | 1000 to 10000 nM | C=CC(=O)Nc1cccc(-c2nc(-c3ccc4c(c3)CCNC4)c3ccsc3c2-c2ccc(F)cc2OCCOC)c1 [Compound 12, N-[3-[7-[4-fluoro-2-(2-methoxyethoxy)phenyl]-4-(1,2,3,4-tetrahydroisoquinolin-6-yl)thieno[3,2-c]pyridin-6-yl]phenyl]prop-2-enamide] | – | –
7 | – | 5000 to 25000 nM | < 100 nM | < 1000 nM | – | C=CC(=O)N1CC[C@H](n2cc(-c3nc(-c4ccc5c(c4)CCNC5)c4ccsc4c3-c3ccc(F)cc3OCCOC)cn2)C1 [compound 47] | – | –
